Source: patent US20240217963A1, “RECEPTOR-INTERACTING PROTEIN 1 INHIBITORS, PREPARATIONS, AND USES THEREOF” (SIRONAX LTD., priority 2021, published 2024)

molecular target: T1, RIP1 (Homo sapiens, UniProt Q13546); test: Cellular RIP1 inhibitory activity: HT-29 necroptosis (TNFα/SMAC mimetic/zVAD-FMK) CellTiter-Glo viability assay; assay type: cell-based; conditions: HT-29 cells, TNF-α 10 ng/ml + SMAC mimetic 6 μM + zVAD-FMK 10 μM, 20 hours, geometric mean, read-out: EC50 Values of in vitro Cellular RIP1 Inhibitory Activity
T1 sequence (Q13546 1-671): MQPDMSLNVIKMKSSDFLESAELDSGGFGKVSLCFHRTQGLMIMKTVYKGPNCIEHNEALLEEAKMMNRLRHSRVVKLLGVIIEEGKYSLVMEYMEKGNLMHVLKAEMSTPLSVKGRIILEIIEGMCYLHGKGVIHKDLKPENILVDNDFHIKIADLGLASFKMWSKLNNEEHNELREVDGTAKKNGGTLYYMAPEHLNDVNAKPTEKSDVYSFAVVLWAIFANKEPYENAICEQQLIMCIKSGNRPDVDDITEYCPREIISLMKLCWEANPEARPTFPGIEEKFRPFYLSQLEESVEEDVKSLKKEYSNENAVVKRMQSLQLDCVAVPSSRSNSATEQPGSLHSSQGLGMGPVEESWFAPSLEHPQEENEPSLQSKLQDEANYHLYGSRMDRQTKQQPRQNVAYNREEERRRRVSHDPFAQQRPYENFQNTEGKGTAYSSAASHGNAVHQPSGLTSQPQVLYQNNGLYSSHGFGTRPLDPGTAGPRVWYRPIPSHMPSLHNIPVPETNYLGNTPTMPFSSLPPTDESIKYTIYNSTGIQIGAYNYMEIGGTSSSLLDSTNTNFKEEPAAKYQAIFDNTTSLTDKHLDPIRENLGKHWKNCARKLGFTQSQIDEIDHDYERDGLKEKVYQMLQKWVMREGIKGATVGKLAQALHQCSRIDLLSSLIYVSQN

**Q.** `Cn1ncnc1-c1nc(N2CCC(C)(C(=O)N(O)Cc3cc(F)cc(F)c3)CC2)ncc1F` [Compound 18, N-(3,5-difluorobenzyl)-1-(5-fluoro-4-(1-methyl-1H-1,2,4-triazol-5-yl)pyrimidin-2-yl)-N-hydroxy-4-methylpiperidine-4-carboxamide] was tested. Which EC50 did it give?
**A.** 0.1 to 100 nM

**Q.** For `[2H]C([2H])([2H])N(C(=O)C1CCN(c2ncc(F)c(-c3ncnn3C)n2)CC1)C([2H])([2H])c1cc(F)cc(F)c1F` [Compound 75, 1-(5-fluoro-4-(1-methyl-1H-1,2,4-triazol-5-yl)pyrimidin-2-yl)-N-(methyl-d3)-N-((2,3,5-trifluorophenyl)methyl-d2)piperidine-4-carboxamide], which EC50 is on record?
**A.** 0.1 to 100 nM

**Q.** Which EC50 does the source give for `Cc1nc(C)n(-c2nc(N3CCC(F)(C(=O)N(O)Cc4cc(F)cc(F)c4)CC3)ncc2F)n1` [Compound 14, N-(3,5-difluorobenzyl)-1-(4-(3,5-dimethyl-1H-1,2,4-triazol-1-yl)-5-fluoropyrimidin-2-yl)-4-fluoro-N-hydroxypiperidine-4-carboxamide] here?
**A.** 0.1 to 100 nM

**Q.** `Cc1cnn(C)c1-c1nc(N2CCC(C(=O)NCc3cc(C)n(C)n3)CC2)ncc1F` [Compound 43, N-((1,5-dimethyl-1H-pyrazol-3-yl)methyl)-1-(4-(1,4-dimethyl-1H-pyrazol-5-yl)-5-fluoropyrimidin-2-yl)piperidine-4-carboxamide] was tested. Which EC50 did it give?
**A.** 1000 to 10000 nM

**Q.** `Cc1cnn(C)c1-c1nc(N2CCC(C(=O)N(O)Cc3ccccc3)CC2)ncc1F` [Compound 33, N-benzyl-1-(4-(1,4-dimethyl-1H-pyrazol-5-yl)-5-fluoropyrimidin-2-yl)-N-hydroxypiperidine-4-carboxamide] was tested. Which EC50 did it give?
**A.** 0.1 to 100 nM

**Q.** `Cn1ncnc1-c1nc(N2CCC(C(=O)NCc3cc(F)cc(F)c3F)CC2)ncc1F` [Compound 21, 1-(5-fluoro-4-(1-methyl-1H-1,2,4-triazol-5-yl)pyrimidin-2-yl)-N-(2,3,5-trifluorobenzyl)piperidine-4-carboxamide] was tested. Which EC50 did it give?
**A.** 0.1 to 100 nM

**Q.** `Cc1cnn(C)c1-c1nc(N2CCC(C(=O)N(C)Cc3cnn(C)c3)CC2)ncc1F` [Compound 83, 1-(4-(1,4-dimethyl-1H-pyrazol-5-yl)-5-fluoropyrimidin-2-yl)-N-methyl-N-((1-methyl-1H-pyrazol-4-yl)methyl)piperidine-4-carboxamide] was tested. Which EC50 did it give?
**A.** 100 to 1000 nM

**Q.** Which EC50 does the source give for `[2H]C([2H])([2H])N(C(=O)C1CCN(c2ncc(F)c(-c3c(C)cnn3C)n2)CC1)C([2H])([2H])c1cc(F)cc(F)c1F` [Compound 74, 1-(4-(1,4-dimethyl-1H-pyrazol-5-yl)-5-fluoropyrimidin-2-yl)-N-(methyl-d3)-N-((2,3,5-trifluorophenyl)methyl-d2)piperidine-4-carboxamide] here?
**A.** 0.1 to 100 nM

**Q.** `CCN(Cc1ccn(C)n1)C(=O)C1CCN(c2ncc(F)c(-c3c(C)cnn3C)n2)CC1` [Compound 82, 1-(4-(1,4-dimethyl-1H-pyrazol-5-yl)-5-fluoropyrimidin-2-yl)-N-ethyl-N-((1-methyl-1H-pyrazol-3-yl)methyl)piperidine-4-carboxamide] was tested. Which EC50 did it give?
**A.** 0.1 to 100 nM

**Q.** Which EC50 does the source give for `CN(Cc1cc(F)cc(F)c1F)C(=O)C1CCN(c2ncc(F)c(-c3ncnn3C)n2)CC1` [Compound 68, 1-(5-fluoro-4-(1-methyl-1H-1,2,4-triazol-5-yl)pyrimidin-2-yl)-N-methyl-N-(2,3,5-trifluorobenzyl)piperidine-4-carboxamide] here?
**A.** 0.1 to 100 nM

**Q.** For `Cc1cnn(C)c1-c1nc(N2CCC(C(=O)N(C)Cc3cscn3)CC2)ncc1F` [Compound 93, 1-(4-(1,4-dimethyl-1H-pyrazol-5-yl)-5-fluoropyrimidin-2-yl)-N-methyl-N-(thiazol-4-ylmethyl) piperidine-4-carboxamide], which EC50 is on record?
**A.** 0.1 to 100 nM

**Q.** For `Cc1cnn(C)c1-c1nc(N2CCC(C(=O)N(O)Cc3ncccc3F)CC2)ncc1F` [Compound 8, 1-(4-(1,4-dimethyl-1H-pyrazol-5-yl)-5-fluoropyrimidin-2-yl)-N-((3-fluoropyridin-2-yl)methyl)-N-hydroxypiperidine-4-carboxamide], which EC50 is on record?
**A.** 0.1 to 100 nM

**Q.** For `Cc1nnc(CNC(=O)C2CCN(c3ncc(F)c(-c4c(C)cnn4C)n3)CC2)s1` [Compound 46, 1-(4-(1,4-dimethyl-1H-pyrazol-5-yl)-5-fluoropyrimidin-2-yl)-N-((5-methyl-1,3,4-thiadiazol-2-yl)methyl)piperidine-4-carboxamide], which EC50 is on record?
**A.** 1000 to 10000 nM

**Q.** Which EC50 does the source give for `Cc1nc(C)n(-c2nc(N3CCC(C(=O)NCc4cc(F)cc(F)c4F)CC3)ncc2F)n1` [Compound 5, 1-(4-(3,5-dimethyl-1H-1,2,4-triazol-1-yl)-5-fluoropyrimidin-2-yl)-N-(2,3,5-trifluorobenzyl)piperidine-4-carboxamide] here?
**A.** 0.1 to 100 nM

**Q.** `Cc1cnn(C)c1-c1nc(N2CCC(C(=O)N(O)Cc3ccncc3F)CC2)ncc1F` [Compound 11, 1-(4-(1,4-dimethyl-1H-pyrazol-5-yl)-5-fluoropyrimidin-2-yl)-N-((3-fluoropyridin-4-yl)methyl)-N-hydroxypiperidine-4-carboxamide] was tested. Which EC50 did it give?
**A.** 0.1 to 100 nM

**Q.** With `Cc1cnn(C)c1-c1nc(N2CCC(C(=O)N[C@@H](CO)c3ccccc3)CC2)ncc1F` [Compound 35, (R)-1-(4-(1,4-dimethyl-1H-pyrazol-5-yl)-5-fluoropyrimidin-2-yl)-N-(2-hydroxy-1-phenylethyl)piperidine-4-carboxamide] as the compound, how does the EC50 read?
**A.** 0.1 to 100 nM

**Q.** `[2H]C([2H])(NC(=O)C1CCN(c2ncc(F)c(-c3nnc(C)s3)n2)CC1)c1cc(F)cc(F)c1F` [Compound 61, 1-(5-fluoro-4-(5-methyl-1,3,4-thiadiazol-2-yl)pyrimidin-2-yl)-N-((2,3,5-trifluorophenyl)methyl-d2)piperidine-4-carboxamide] was tested. Which EC50 did it give?
**A.** 0.1 to 100 nM

**Q.** `Cc1cnn(C)c1-c1cc(N2CCC(C(=O)N(C)Cc3cc(F)cc(F)c3)CC2)ncn1` [Compound 88, N-(3,5-difluorobenzyl)-1-(6-(1,4-dimethyl-1H-pyrazol-5-yl)pyrimidin-4-yl)-N-methylpiperidine-4-carboxamide] was tested. Which EC50 did it give?
**A.** 0.1 to 100 nM

**Q.** `Cc1cnn(C)c1-c1nc(N2CCC(C(=O)NCc3cnn(C)c3)CC2)ncc1F` [Compound 45, 1-(4-(1,4-dimethyl-1H-pyrazol-5-yl)-5-fluoropyrimidin-2-yl)-N-((1-methyl-1H-pyrazol-4-yl)methyl)piperidine-4-carboxamide] was tested. Which EC50 did it give?
**A.** 1000 to 10000 nM

**Q.** With `CCN(Cc1nccs1)C(=O)C1CCN(c2ncc(F)c(-c3c(C)cnn3C)n2)CC1` [Compound 96, 1-(4-(1,4-dimethyl-1H-pyrazol-5-yl)-5-fluoropyrimidin-2-yl)-N-ethyl-N-(thiazol-2-ylmethyl)piperidine-4-carboxamide] as the compound, how does the EC50 read?
**A.** 0.1 to 100 nM

**Q.** How did the EC50 turn out when `Cc1nc(CNC(=O)C2CCN(c3ncc(F)c(-c4c(C)cnn4C)n3)CC2)c(C)s1` [Compound 56, 1-(4-(1,4-dimethyl-1H-pyrazol-5-yl)-5-fluoropyrimidin-2-yl)-N-((2,5-dimethylthiazol-4-yl)methyl)piperidine-4-carboxamide] was run?
**A.** 0.1 to 100 nM

**Q.** With `Cc1csc(CNC(=O)C2CCN(c3ncc(F)c(-c4c(C)cnn4C)n3)CC2)n1` [Compound 47, 1-(4-(1,4-dimethyl-1H-pyrazol-5-yl)-5-fluoropyrimidin-2-yl)-N-((4-methylthiazol-2-yl)methyl)piperidine-4-carboxamide] as the compound, how does the EC50 read?
**A.** 100 to 1000 nM

**Q.** With `[2H]C([2H])([2H])N(Cc1nccs1)C(=O)C1CCN(c2ncc(F)c(-c3c(C)cnn3C)n2)CC1` [Compound 77, 1-(4-(1,4-dimethyl-1H-pyrazol-5-yl)-5-fluoropyrimidin-2-yl)-N-(methyl-d3)-N-(thiazol-2-ylmethyl)piperidine-4-carboxamide] as the compound, how does the EC50 read?
**A.** 0.1 to 100 nM

**Q.** Which EC50 does the source give for `Cc1cnn(C)c1-c1nc(N2CCC(C(=O)N(C)Cc3cc(F)cc(F)c3F)CC2)ncc1F` [Compound 66, 1-(4-(1,4-dimethyl-1H-pyrazol-5-yl)-5-fluoropyrimidin-2-yl)-N-methyl-N-(2,3,5-trifluorobenzyl)piperidine-4-carboxamide] here?
**A.** 0.1 to 100 nM

**Q.** For `Cc1nc(C)n(-c2nc(N3CCC(C(=O)NCc4cc(F)cc(F)c4)CC3)ncc2F)n1` [Compound 2, N-(3,5-difluorobenzyl)-1-(4-(3,5-dimethyl-1H-1,2,4-triazol-1-yl)-5-fluoropyrimidin-2-yl)piperidine-4-carboxamide], which EC50 is on record?
**A.** 0.1 to 100 nM

**Q.** `Cc1cnn(C)c1-c1nc(N2CCC(C(=O)N(O)Cc3nccs3)CC2)ncc1F` [Compound 12, 1-(4-(1,4-dimethyl-1H-pyrazol-5-yl)-5-fluoropyrimidin-2-yl)-N-hydroxy-N-(thiazol-2-ylmethyl)piperidine-4-carboxamide] was tested. Which EC50 did it give?
**A.** 0.1 to 100 nM

**Q.** With `Cc1cnn(C)c1-c1cc(N2CCC(C(=O)N(C)Cc3nccs3)CC2)c(F)cn1` [Compound 86, 1-(2-(1,4-dimethyl-1H-pyrazol-5-yl)-5-fluoropyridin-4-yl)-N-methyl-N-(thiazol-2-ylmethyl)piperidine-4-carboxamide] as the compound, how does the EC50 read?
**A.** 0.1 to 100 nM

**Q.** Which EC50 does the source give for `Cc1cnn(C)c1-c1nc(N2CCC(C(=O)N(C)Cc3cc(F)cc(F)c3)CC2)ncc1F` [Compound 85, N-(3,5-difluorobenzyl)-1-(4-(1,4-dimethyl-1H-pyrazol-5-yl)-5-fluoropyrimidin-2-yl)-N-methylpiperidine-4-carboxamide] here?
**A.** 0.1 to 100 nM

**Q.** Which EC50 does the source give for `CCN(Cc1cncs1)C(=O)C1CCN(c2ncc(F)c(-c3c(C)cnn3C)n2)CC1` [Compound 99, 1-(4-(1,4-dimethyl-1H-pyrazol-5-yl)-5-fluoropyrimidin-2-yl)-N-ethyl-N-(thiazol-5-ylmethyl)piperidine-4-carboxamide] here?
**A.** 0.1 to 100 nM
